Legend:
[1] = target: T1, GABA-A receptor; alpha-5/beta-3/gamma-2 (Homo sapiens, UniProt P18507+P28472+P31644); assay: Displacement of [3H]Ro151788 from human recombinant alpha5beta3gamma2 GABAA receptor stably expressed in HEK293 cell membrane assessed as inhibition constant by radioligand binding assay; format: cell membranes
T1 sequence (P18507 whole entry): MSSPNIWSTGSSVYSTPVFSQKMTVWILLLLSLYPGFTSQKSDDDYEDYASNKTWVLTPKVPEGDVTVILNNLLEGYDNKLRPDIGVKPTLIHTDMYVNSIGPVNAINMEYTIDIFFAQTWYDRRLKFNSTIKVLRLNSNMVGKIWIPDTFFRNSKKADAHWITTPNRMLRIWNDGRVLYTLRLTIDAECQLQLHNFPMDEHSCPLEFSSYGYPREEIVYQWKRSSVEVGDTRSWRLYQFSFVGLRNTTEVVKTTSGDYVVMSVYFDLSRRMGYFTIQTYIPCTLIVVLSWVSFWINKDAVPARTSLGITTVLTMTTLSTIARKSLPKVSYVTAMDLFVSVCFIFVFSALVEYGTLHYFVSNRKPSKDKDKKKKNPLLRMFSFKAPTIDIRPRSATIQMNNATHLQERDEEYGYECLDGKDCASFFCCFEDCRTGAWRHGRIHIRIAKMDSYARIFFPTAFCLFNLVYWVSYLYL
T1 sequence (P28472 whole entry): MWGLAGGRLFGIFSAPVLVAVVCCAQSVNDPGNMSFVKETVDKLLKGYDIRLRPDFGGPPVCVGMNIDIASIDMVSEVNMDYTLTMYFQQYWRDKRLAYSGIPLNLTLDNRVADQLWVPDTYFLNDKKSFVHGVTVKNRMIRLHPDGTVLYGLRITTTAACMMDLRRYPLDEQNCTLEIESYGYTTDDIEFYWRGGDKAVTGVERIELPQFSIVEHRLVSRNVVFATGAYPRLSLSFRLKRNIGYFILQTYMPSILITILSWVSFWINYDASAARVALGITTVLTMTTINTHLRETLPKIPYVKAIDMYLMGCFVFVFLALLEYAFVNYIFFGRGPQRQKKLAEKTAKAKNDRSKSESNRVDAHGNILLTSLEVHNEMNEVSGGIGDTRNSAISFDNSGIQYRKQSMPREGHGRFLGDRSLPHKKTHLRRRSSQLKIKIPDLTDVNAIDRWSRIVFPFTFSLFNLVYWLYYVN
T1 sequence (P31644 whole entry): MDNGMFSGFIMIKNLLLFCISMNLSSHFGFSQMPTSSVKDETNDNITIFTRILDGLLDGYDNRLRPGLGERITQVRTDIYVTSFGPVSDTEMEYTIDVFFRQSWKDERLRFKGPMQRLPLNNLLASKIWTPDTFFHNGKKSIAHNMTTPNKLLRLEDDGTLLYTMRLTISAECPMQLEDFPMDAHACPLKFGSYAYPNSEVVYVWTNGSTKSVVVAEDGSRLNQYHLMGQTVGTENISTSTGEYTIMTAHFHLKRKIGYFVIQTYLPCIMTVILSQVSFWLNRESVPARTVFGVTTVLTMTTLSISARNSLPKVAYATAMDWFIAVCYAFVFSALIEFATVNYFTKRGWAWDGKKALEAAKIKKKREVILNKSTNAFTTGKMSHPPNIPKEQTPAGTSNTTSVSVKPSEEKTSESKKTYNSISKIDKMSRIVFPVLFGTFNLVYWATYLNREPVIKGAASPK

[2] = target: T2, GABA-A receptor; alpha-5/beta-3/gamma-2 (Homo sapiens) (UniProt P18507+P28472+P31644); assay: Negative allosteric modulation activity at human recombinant alpha5beta3gamma2 GABAA receptor stably expressed in HEK293 cells assessed as modulation at alpha5 subunit at 1 uM by Patch clamp method; format: cell-based; settings: filed as negative allosteric modulator
[3] = target: T2, GABA-A receptor; alpha-5/beta-3/gamma-2 (Homo sapiens); assay: Negative allosteric modulation activity at human recombinant alpha5beta3gamma2 GABAA receptor stably expressed in HEK293 cells assessed as modulation at alpha5 subunit at 10 uM by Patch clamp method; format: cell-based; settings: filed as negative allosteric modulator
[4] = target: GABA-A receptor; alpha-1/beta-3/gamma-2 (Homo sapiens) (UniProt P14867+P18507+P28472); assay: Negative allosteric modulation activity at human recombinant alpha1beta3gamma2 GABAA receptor stably expressed in HEK293 cells assessed as modulation at alpha1 subunit at 10 uM by Patch clamp method; format: cell-based; settings: filed as negative allosteric modulator
[5] = target: Voltage-gated inwardly rectifying potassium channel KCNH2 (Homo sapiens, UniProt Q12809); assay: Inhibition of hERG expressed in CHO cells stably at -80 mV holding potential by automated patch clamp method; format: toxicity, cell-based
Sequence of Voltage-gated inwardly rectifying potassium channel KCNH2 (Q12809 whole entry): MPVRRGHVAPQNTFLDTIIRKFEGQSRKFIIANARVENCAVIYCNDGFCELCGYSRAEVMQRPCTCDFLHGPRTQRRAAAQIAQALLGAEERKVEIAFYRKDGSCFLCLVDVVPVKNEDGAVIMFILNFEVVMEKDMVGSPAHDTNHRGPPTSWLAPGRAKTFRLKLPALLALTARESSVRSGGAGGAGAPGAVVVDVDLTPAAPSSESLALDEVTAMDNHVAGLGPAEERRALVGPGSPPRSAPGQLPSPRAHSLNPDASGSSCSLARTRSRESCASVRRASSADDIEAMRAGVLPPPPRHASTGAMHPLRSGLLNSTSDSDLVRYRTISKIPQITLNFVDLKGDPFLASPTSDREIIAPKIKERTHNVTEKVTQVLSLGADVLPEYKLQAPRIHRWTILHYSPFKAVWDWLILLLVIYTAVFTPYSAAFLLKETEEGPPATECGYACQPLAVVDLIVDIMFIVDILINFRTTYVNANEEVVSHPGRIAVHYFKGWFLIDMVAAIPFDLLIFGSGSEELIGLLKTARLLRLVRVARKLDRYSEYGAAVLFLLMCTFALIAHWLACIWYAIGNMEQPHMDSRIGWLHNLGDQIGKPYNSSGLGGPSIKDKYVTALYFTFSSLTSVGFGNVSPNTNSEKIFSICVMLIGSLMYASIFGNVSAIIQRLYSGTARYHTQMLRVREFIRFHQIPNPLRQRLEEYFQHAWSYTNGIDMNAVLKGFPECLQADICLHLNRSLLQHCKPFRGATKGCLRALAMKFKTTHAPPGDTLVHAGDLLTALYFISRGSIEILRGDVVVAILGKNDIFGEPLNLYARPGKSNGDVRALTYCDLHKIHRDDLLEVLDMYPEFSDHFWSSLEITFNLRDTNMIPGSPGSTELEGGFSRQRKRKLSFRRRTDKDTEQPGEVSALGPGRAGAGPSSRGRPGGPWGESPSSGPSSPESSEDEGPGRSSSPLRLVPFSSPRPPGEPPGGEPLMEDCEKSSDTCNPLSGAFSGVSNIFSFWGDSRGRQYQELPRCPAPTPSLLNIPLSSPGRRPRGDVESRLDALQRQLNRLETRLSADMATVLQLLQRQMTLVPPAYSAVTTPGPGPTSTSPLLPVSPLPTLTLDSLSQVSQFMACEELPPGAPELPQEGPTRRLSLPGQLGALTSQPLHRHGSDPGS

[6] = Metabolic stability in human liver microsomes assessed as intrinsic clearance at 2.5 uM; format: ADME, Microsome; settings: read-out: CLH
[7] = Metabolic stability in Wistar rat liver microsomes assessed as intrinsic clearance at 2.5 uM; format: ADME, Microsome; settings: read-out: CLH

| Compound | Ki [1] [nM] | Activity [2] [%] | Activity [3] [%] | microsomal CLint at 2.5 µM [6] [µL/min/mg] | microsomal CLint at 2.5 µM [7] [µL/min/mg] | Activity [4] [%] | IC50 [5] [nM] |
| --- | --- | --- | --- | --- | --- | --- | --- |
| Cc1onc(-c2ccc(F)cc2)c1COc1ccc2c(n1)CCN(C(=O)N1CCCC1)C2 | 7.3 | -12 | -36 | 45 | 279 |  | 10000 |
| Cc1onc(-c2ccc(F)cc2)c1COc1cc2c(cn1)C(=O)NCC2 | 0.49 | 15 | 6 |  |  |  |  |
| Cc1nnn(-c2ccc(F)cc2)c1COc1ccc2c(n1)CCN(C(=O)C1CC1)C2 | 49 |  |  | 53 | 99 |  |  |
| Cc1onc(-c2ccc(F)cc2)c1COc1ccc2c(c1)CCNC2=O | 10 | -6 | -7 | 10 | 108 |  |  |
| Cc1onc(-c2ccc(F)cc2)c1COc1ccc2c(c1)CCC(=O)N2C | 13 | -6 | -10 |  |  |  |  |
| Cc1onc(-c2ccc(F)cc2)c1COc1ccc2c(n1)CCN(C(=O)N1CCOCC1)C2 | 4.6 | -15 | -39 | 32 | 142 |  | 9100 |
| Cc1onc(-c2ccc(F)cc2)c1COc1ccc2c(c1)OCC(=O)N2C | 14 | -16 |  | 33 | 381 |  |  |
| Cc1onc(-c2ccc(F)cc2)c1COc1ccc2c(n1)CCN(C(=O)C1CCC1)C2 | 13 | -7 | -26 | 57 | 400 |  | > 10000 |
| CC(=O)N1CCc2nc(OCc3c(-c4ccc(F)cc4)noc3C)ccc2C1 | 1.9 | -19 | -16 | 74 | 301 |  | 5300 |
| Cc1onc(-c2ccc(F)cc2)c1COc1ccc(C(=O)N2CCS(=O)(=O)CC2)cn1 [BASMISANIL] | 4.4 | -24 | -25 | 7.5 | 22 | -2 |  |
| Cc1onc(-c2ccc(F)cc2)c1COc1ccc2c(n1)CCN(C(=O)N(C)C)C2 | 2.7 | -22 | -42 | 49 | 356 |  | 8300 |

Further lines, with some results ahead:

| Ki [1] [nM] | Activity [2] [%] | Activity [3] [%] | microsomal CLint at 2.5 µM [6] [µL/min/mg] | microsomal CLint at 2.5 µM [7] [µL/min/mg] | Compound | Activity [4] [%] | IC50 [5] [nM] |
| --- | --- | --- | --- | --- | --- | --- | --- |
| 23 | -23 | -36 |  |  | Cc1onc(-c2ccc(F)cc2)c1COc1ccc2c(n1)CCN(CC1CCCS1(=O)=O)C2=O (stereo not drawn) | -12 | 1800 |
| 9.9 |  |  | 42 | 210 | Cc1onc(-c2ccc(F)cc2)c1COc1ccc2c(n1)CCN(C(=O)C1CCCO1)C2 (stereo not drawn) |  |  |
| 30 | -16 | -35 | 9 | 44 | Cc1onc(-c2ccc(F)cc2)c1COc1ccc2c(n1)CCN(C(=O)CCS(C)(=O)=O)C2 |  | 4200 |
| 8.3 | -4 | -34 | 71 | 388 | Cc1onc(-c2ccc(F)cc2)c1COc1ccc2c(n1)CCN(C(=O)C1CC1)C2 |  | 5800 |
| 49 |  |  | 107 | 359 | Cc1onc(-c2ccc(F)cc2)c1COc1ccc2c(n1)CCN(C(=O)N1CCCCC1)C2 |  | 10000 |
| 46 |  |  | 48 | 92 | CCC(=O)N1CCc2nc(OCc3c(C)nnn3-c3ccc(F)cc3)ccc2C1 |  |  |
| 21 | -14 | -31 | 85 | 365 | Cc1onc(-c2ccc(F)cc2)c1COc1ccc2c(n1)CCN(Cc1ccco1)C2=O |  | 3500 |
| 4.6 | -13 | -32 | 67 | 245 | Cc1onc(-c2ccc(F)cc2)c1COc1ccc2c(n1)CCN(C(=O)c1ccno1)C2 |  | 6400 |
